# According to patent publication US20220323414A1, “FARNESOID X RECEPTOR AGONISTS FOR THE TREATMENT OF DISEASE” (Metacrine, Inc., priority 2018, published 2022):
# How the values were obtained:
# [1] = test system: 7-alpha-hydroxy-4-cholesten-3-one (C4); test: Phase 1 MAD pharmacodynamics: plasma C4; assay type: in vivo, human; conditions: healthy subjects
# Procedure: (§1) PD: Plasma levels of 7-alpha-hydroxy-4-cholesten-3-one (C4), plasma levels of fibroblast growth factor 19 (FGF19), and levels of total bile acids (for Part B only).
# (§2) 6 groups of 10 healthy male subjects each to investigate the safety, tolerability, PK, and PD of multiple oral doses of Compound 1. Subjects in all groups received ascending multiple oral doses of Compound 1 or matching placebo once daily on Days 1 to 14. Dosing was conducted under fasted conditions on each dosing day. Patients in each group received multiple oral doses of 20, 40, 50, 80, 100, and 150 mg of Compound 1 once daily on days 1 to 14 of the study. Eight members of each group received Compound 1, and two members of each group received placebo.
# [2] = Phase 1 multiple ascending dose PK in healthy subjects (plasma Compound 1 concentrations); assay type: in vivo, human
# Source text: Purpose: The purposes of this study was to assess the safety and tolerability of single and multiple oral doses of Compound 1, to characterize the pharmacokinetics (PK) of single and multiple oral doses of Compound 1, to characterize the pharmacodynamics (PD) of single and multiple oral doses of Compound 1, and to identify the recommended multiple oral dose level(s) of Compound 1 for future studies in patients. The study was a first-in-human, 2-part, single-center Phase 1, randomized, double-blind, placebo-controlled study in healthy male subjects.
# PK: Plasma Compound 1 concentrations, Plasma PK parameters.
# as §2
# hFXR = biological target: T1, hFXR (Homo sapiens, UniProt Q96RI1); test: In Vitro FXR Assay (TK); assay type: cell-based; conditions: transfected CV-1 cells, luminescence, 18 hrs
# T1 construct: expressed in transfected cells; host or cells: CV-1 cells
# T1 sequence (Q96RI1 1-486): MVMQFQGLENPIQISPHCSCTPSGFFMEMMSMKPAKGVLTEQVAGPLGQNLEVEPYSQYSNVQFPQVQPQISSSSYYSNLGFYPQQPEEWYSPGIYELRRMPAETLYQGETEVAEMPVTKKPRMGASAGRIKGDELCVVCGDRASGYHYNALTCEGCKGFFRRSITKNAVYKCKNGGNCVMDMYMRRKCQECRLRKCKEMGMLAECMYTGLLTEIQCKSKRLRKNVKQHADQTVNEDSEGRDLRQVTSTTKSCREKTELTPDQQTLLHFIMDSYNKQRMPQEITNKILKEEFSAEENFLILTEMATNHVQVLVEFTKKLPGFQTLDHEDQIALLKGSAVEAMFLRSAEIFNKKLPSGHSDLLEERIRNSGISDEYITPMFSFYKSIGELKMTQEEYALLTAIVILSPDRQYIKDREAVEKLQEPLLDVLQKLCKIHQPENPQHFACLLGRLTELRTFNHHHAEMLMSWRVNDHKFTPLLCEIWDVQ
# T1 sequence (P19793 1-462 partner): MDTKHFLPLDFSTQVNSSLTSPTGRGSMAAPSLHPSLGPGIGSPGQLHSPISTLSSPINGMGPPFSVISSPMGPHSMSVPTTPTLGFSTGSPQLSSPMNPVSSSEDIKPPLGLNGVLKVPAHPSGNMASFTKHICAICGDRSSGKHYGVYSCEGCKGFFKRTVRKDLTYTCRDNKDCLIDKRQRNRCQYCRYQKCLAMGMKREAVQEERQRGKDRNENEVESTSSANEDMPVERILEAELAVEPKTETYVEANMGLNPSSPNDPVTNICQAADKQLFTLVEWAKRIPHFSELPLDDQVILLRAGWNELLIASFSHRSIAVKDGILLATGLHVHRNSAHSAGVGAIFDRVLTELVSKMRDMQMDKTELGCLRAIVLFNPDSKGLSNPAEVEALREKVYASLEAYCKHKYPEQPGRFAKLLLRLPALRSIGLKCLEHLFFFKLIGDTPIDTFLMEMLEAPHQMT
# Procedure: CV-1 cells were seeded at a density of 2,000,000 cells in a T175 flask with DMEM+10% charcoal double-stripped FBS and incubated at 37° C. in 5% CO2 for 18 h (O/N).
# After 18 h of incubation, the medium in the T175 flask was changed with fresh DMEM+10% charcoal super-stripped serum. In a polypropylene tube, 2500 μL OptiMEM (Life Technologies, Cat #31985-062) was combined with expression plasmids for hFXR, hRXR, TK-ECRE-luc and pCMX-YFP. The tube was then briefly vortexed and incubated at room temperature for 5 minutes. Transfection reagent (X-tremeGENE HP from Roche, Cat #06 366 236 001) was added to the OptiMEM/plasmid mixture vortexed and incubated at room temperature for 20 minutes. Following incubation, the transfection reagent/DNA mixture complex was added to cells in the T175 flask and the cells were incubated at 37° C. in 5% CO2 for 18 h (O/N).
# Compounds were serially diluted in DMSO and added to transfected CV-1 cells. The cells were then incubated for 18 hrs. The next day cells were lysed and examined for luminescence.
# [3] = test system: alanine aminotransferase (ALT); test: NASH clinical trial Part 1: ALT; assay type: in vivo, human; conditions: NASH patients, 50 mg daily
# Procedure: (§3) Part 1: An open-label, uncontrolled, single-center study assessing 50 mg of Compound 1 treatment for 4 weeks; 10 subjects were enrolled.
# (§4) Length of Study: Subjects enrolled in Part 1 participated in the study for approximately 12 weeks, which included a 4-week screening period, 4 weeks (28 days) for the treatment period, and 4 weeks for follow-up. Subjects enrolled in Part 2 will participate in the study for approximately 20 weeks, which includes an approximate 4-week screening period, 12 weeks (84 days) for the treatment period, and 4 weeks for follow-up. • Study Treatment (Part 1): Subjects enrolled in Part 1 received Compound 1 50 mg for 28 consecutive days. • Study Treatment (Part 2): Subjects enrolled in Part 2 will receive Compound 1 (80 mg or 50 mg) or matching placebo for 84 consecutive days.
# Levels of alanine aminotransferase (ALT) and gamma-glutamyl transferase (GGT) were assessed in subjects prior to administration of Compound 1, after 14 days of dosing of Compound 1, and after 28 days of dosing of Compound 1. The resulting percent changes from baseline for these biomarkers can be seen in FIG. 6A, FIG. 6B.
# total bile acids = test: Phase 1 MAD pharmacodynamics: total bile acids; assay type: in vivo, human; conditions: healthy subjects, 50-150 mg/day cohorts, day 14
# Procedure: as §1, §2
# [4] = test system: subjects with NASH (liver fat content); test: NASH clinical trial Part 1: hepatic fat; assay type: in vivo, human; conditions: NASH patients, 50 mg daily, after 28 days
# Procedure: Purpose: The purposes of this study was to evaluate the safety and tolerability of Compound 1 monotherapy in subjects with NASH, to characterize the pharmacokinetics (PK) of Compound 1, to characterize the pharmacodynamics (PD) of Compound 1 dose and response, to estimate the activity of Compound 1 using Magnetic Resonance Imaging-Proton Density Fat Fraction (MRI-PDFF) and NASH fibrosis biomarkers.
# as §3
# Length of Study: Subjects enrolled in Part 1 participated in the study for approximately 12 weeks, which included a 4-week screening period, 4 weeks (28 days) for the treatment period, and 4 weeks for follow-up. […]
# The 10 patients with NASH who enrolled in the study received 50 mg doses of Compound 1 daily for a period of 28 days as described above. Hepatic fat levels in each patient were assessed prior to treatment with Compound 1, after 28 days of treatment with Compound 1, then again 28 days after cessation of treatment with Compound 1.
# [5] = NASH clinical trial Part 1: plasma levels of Compound 1; assay type: in vivo, human; conditions: 50 mg, healthy and NASH patients
# Procedure: as §3
# Pharmacokinetic Assessments: Blood samples will be taken according to the PK sampling schedule.
# as §4
# [6] = test system: fibroblast growth factor 19 (FGF19); test: Phase 1 MAD pharmacodynamics: plasma FGF19; assay type: in vivo, human; conditions: healthy subjects, multiple doses 20 mg to 150 mg
# Procedure: as §1, §2
# [7] = test system: gamma-glutamyl transferase (GGT); test: NASH clinical trial Part 1: GGT; assay type: in vivo, human; conditions: NASH patients, 50 mg daily
# Procedure: as §3, §4
# The resulting percent changes from baseline for these biomarkers can be seen in FIG. 6A, FIG. 6B.
# [8] = test system: SCID mice with CD4+CD45RB high T-cell transfer colitis; test: Adoptive T-cell transfer colitis mouse model; assay type: in vivo; conditions: for reduction of histopathology sum score: vehicle sum score 10
# Procedure: Adoptive T-cell transfer colitis model is accepted as a relevant mouse model for human inflammatory bowel disease (IBD). To induce colitis in this model, the CD4 T-lymphocyte population is isolated from the spleens of donor mice. Subsequently, a subpopulation of CD4+CD45RB high T-cells is purified by cell sorting using flow cytometry. The purified CD4+CD45RB high T-cells are injected into the peritoneal cavity of the recipient severe combined immunodeficiency (SCID) mice. Colitis develops approximately three to six weeks after T-cell transfer, which is monitored by loss of body weight, inconsistent stool or bloody diarrhea. Testing of combinations of an FXR agonist and an additional therapeutic agent described herein is initiated at the same time of injecting purified CD4+CD45RBhigh T-cells to the recipient SCID mice. Alternatively, the combinations of an FXR agonist and an additional therapeutic agent described herein are administered two or three weeks post T-cell transfer, when colitis has already developed in the model. During the period of administering the combinations of an FXR agonist and an additional therapeutic agent described herein to mice, the therapeutic effects may be monitored by observations on body weights, stool consistency, or rectal bleeding. After euthanasia, the disease development and effects of the compounds are further quantified by measuring colon weight and length, and colon histology by H&E staining for inflammation and structural changes in mucosa, and protein and RNA expression of genes related to the disease.
compound,measurement,setting,value
COc1ccc([C@H]2CC[C@H](CN(c3cccc(-c4cnn(C5CC5)c4)c3)C(=O)[C@H]3CC[C@H](O)CC3)CC2)cc1C [Compound 1],dose at which the decrease in C4 levels was notable,[1]; Day 14,≥ 50 mg
same,mean C4 levels at 24 hours post dose,[1]; Day 14,remained decreased
same,mean C4 levels versus placebo,"[1]; multiple doses 20 mg to 150 mg, Day 14, most dose levels",lower than for placebo treatment
same,plasma levels at 24 hours following dosing,[2]; 14 days once daily oral dosing,high levels in the plasma at 24 hours following dosing
same,plasma drug exposure with dose,"[2]; 14 days once daily oral, 20 mg to 150 mg",increase in plasma drug exposure with dose
same,EC50,hFXR,≤ 250 nM
same,ALT decrease from baseline,[3]; day 14,7.9%
same,ALT below baseline,[3]; day 28,16.5%
same,change in bile acid levels,total bile acids,decrease in bile acid levels
same,average reduction in fatty liver deposits from baseline,[4],20.3%
same,plasma levels over the 24 hour period after dosing,[5],remained nearly constant
same,mean FGF19 levels,[6],increased
same,time of maximum increase in mean FGF19 levels,[6],6 to 10 hours post dose
same,GGT levels decrease,[7],23.2%
same,GGT decrease from baseline,[7]; day 28,36.3%
"COc1ncc(-c2cccc(N(C[C@H]3CC[C@H](c4ccc(OC)c(C)c4)CC3)C(=O)[C@H]3CC[C@H](O)CC3)c2)s1 [Compound 2, (1R,4R)-4-hydroxy-N-(((1R,4R)-4-(4-methoxy-3-methylphenyl)cyclohexyl)methyl)-N-(3-(2-methoxythiazol-5-yl)phenyl)cyclohexane-1-carboxamide]",reduction in colon W/L as compared to vehicle,[8]; 10 mg/kg,41%
same,reduction of histopathology sum score,[8]; 10 mg/kg,71%
same,reduction in colon W/L as compared to vehicle,[8]; 30 mg/kg,38%
same,reduction of histopathology sum score,[8]; 30 mg/kg,74%
same,reduction in body weight from baseline caused by T-cell transfer,"[8]; 12% body weight reduction after CD4+CD45RBhi T-cell transfer, Compound 2 at 10 mg/kg",reversed
same,efficacy in reducing colitis relative to comparators,[8]; adoptive T-cell transfer model,efficacy superior to CsA and comparable to anti-IL-12/23 treatment
